# Results reported in patent US20060045855A1, “Oral composition for reducing plaque and microbial infections and whitening teeth” (priority 2004, published 2006).
# How the values were obtained:
# [1] = Time-course of generation of ClO2 after 1:1 mixing of NaClO2 solution and oxidizing agent solution, change in absorption at 360 nm; details: from NaClO2 in the presence of the oxidizing agent
# Description: The pH of the resulting composition should be at or below about 7, but above the pKa of chlorous acid. It is known that ClO2 is generated from NaClO2 at pH values at or below about 7 in the absence of an oxidizing agent such as […]. However, the generation is quite slow (on the order of days and months). In the presence of an oxidizing agent such as […] or tannic acid, under the conditions described above, therapeutically effective levels of ClO2 begin to be generated in seconds, as shown below in Tables 1 and 2. Increasing the concentration of the oxidizing agent by weight will cause a more rapid generation of ClO2.
# [2] = standard temperature and pressure; cited from earlier work
# [3] = same solution as H2O2; cited from earlier work
compound,measurement,setting,value
O=C1O[C@H]([C@@H](O)CO)C(O)=C1O [ascorbic acid],time in which therapeutically effective levels of ClO2 begin to be generated,[1],in seconds
O=C(OC[C@H]1O[C@@H](OC(=O)c2cc(O)c(O)c(OC(=O)c3cc(O)c(O)c(O)c3)c2)[C@H](OC(=O)c2cc(O)c(O)c(OC(=O)c3cc(O)c(O)c(O)c3)c2)[C@@H](OC(=O)c2cc(O)c(O)c(OC(=O)c3cc(O)c(O)c(O)c3)c2)[C@@H]1OC(=O)c1cc(O)c(O)c(OC(=O)c2cc(O)c(O)c(O)c2)c1)c1cc(O)c(O)c(OC(=O)c2cc(O)c(O)c(O)c2)c1 [tannic acid],time in which therapeutically effective levels of ClO2 begin to be generated,[1],in seconds
same,solubility in water,[2],1 g/0.35 mL water
O=S(=O)([O-])OOS(=O)(=O)[O-].[Na+].[Na+] [sodium persulfate],stability in the presence of H2O2,[3],degrades very quickly
